From paper PMC3961306, “Comparison of the Cancer Gene Targeting and Biochemical Selectivities of All Targeted Kinase Inhibitors Approved for Clinical Use” (PLoS ONE, 2014)

Tests used:
Experiment in all cases: Kinase profiling in a biochemical assay panel (mobility shift assays and ELISA), %-inhibition at 1 μM; selectivity entropy
[1] = molecular target: panel of more than 300 wild-type and mutant kinases (313 kinase panel) (Homo sapiens, UniProt P19525)
[2] = molecular target: T1, panel of more than 300 wild-type and mutant kinases (313 kinase panel) (Homo sapiens, UniProt P54753)
T1 sequence (P54753 34-998): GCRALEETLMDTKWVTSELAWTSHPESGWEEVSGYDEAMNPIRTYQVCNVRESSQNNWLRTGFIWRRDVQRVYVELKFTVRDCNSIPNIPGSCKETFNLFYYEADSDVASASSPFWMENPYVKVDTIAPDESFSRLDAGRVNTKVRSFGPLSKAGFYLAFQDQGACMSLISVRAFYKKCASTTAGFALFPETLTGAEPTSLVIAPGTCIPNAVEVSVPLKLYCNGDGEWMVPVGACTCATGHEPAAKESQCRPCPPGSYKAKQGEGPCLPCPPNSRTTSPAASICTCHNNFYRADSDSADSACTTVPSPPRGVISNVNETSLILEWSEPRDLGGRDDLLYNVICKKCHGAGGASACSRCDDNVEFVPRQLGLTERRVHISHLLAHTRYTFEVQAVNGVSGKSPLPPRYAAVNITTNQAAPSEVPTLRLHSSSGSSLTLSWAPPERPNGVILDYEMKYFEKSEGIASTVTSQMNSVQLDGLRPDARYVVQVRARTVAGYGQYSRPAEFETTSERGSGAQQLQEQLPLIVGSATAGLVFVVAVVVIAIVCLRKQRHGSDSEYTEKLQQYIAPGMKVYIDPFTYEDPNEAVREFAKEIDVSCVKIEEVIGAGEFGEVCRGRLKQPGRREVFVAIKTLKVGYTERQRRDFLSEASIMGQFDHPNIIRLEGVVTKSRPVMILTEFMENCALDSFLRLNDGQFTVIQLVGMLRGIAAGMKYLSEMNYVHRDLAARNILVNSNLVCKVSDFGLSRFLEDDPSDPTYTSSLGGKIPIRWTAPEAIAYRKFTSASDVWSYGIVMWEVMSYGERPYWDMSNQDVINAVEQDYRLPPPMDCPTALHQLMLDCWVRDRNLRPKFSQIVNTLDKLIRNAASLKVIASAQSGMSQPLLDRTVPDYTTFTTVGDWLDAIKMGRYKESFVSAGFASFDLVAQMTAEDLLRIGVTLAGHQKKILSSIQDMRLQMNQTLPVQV

[3] = molecular target: panel of more than 300 wild-type and mutant kinases (313 kinase panel) (Homo sapiens, UniProt Q04759)
[4] = molecular target: T2, panel of more than 300 wild-type and mutant kinases (313 kinase panel) (Homo sapiens, UniProt Q13470)
T2 sequence (Q13470 1-666): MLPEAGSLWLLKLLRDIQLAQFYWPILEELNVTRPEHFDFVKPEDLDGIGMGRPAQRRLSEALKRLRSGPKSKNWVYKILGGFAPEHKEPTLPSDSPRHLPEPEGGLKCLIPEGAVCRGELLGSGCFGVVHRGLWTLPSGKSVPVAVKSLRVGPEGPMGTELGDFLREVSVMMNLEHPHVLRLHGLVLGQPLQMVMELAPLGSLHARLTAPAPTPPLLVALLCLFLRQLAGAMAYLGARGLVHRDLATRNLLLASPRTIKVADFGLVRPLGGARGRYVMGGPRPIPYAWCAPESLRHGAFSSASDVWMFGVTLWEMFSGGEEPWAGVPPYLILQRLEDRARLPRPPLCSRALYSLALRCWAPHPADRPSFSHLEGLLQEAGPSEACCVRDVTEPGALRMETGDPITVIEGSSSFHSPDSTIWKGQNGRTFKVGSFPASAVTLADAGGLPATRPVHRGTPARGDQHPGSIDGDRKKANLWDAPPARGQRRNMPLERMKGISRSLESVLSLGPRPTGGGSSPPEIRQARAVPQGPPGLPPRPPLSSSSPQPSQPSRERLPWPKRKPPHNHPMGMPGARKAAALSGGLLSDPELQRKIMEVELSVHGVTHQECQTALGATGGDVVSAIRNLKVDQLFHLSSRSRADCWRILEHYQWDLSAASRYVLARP

[5] = molecular target: panel of more than 300 wild-type and mutant kinases (313 kinase panel) (Homo sapiens, UniProt Q13882)
[6] = molecular target: panel of more than 300 wild-type and mutant kinases (313 kinase panel) (Homo sapiens, UniProt Q15759)
[7] = molecular target: panel of more than 300 wild-type and mutant kinases (313 kinase panel) (Homo sapiens, UniProt Q96RG2)
[8] = molecular target: panel of more than 300 wild-type and mutant kinases (313 kinase panel) (Homo sapiens, UniProt Q9UK32)
[9] = molecular target: panel of more than 300 wild-type and mutant kinases (313 kinase panel) (Homo sapiens, UniProt P07332)
[10] = molecular target: panel of more than 300 wild-type and mutant kinases (313 kinase panel) (Homo sapiens, UniProt Q86V86)
[11] = molecular target: panel of more than 300 wild-type and mutant kinases (313 kinase panel) (Homo sapiens, UniProt Q9UM73, L1196M)
[12] = kinase ALK(L1196M), 1 μM compound

Structure (SMILES)	%-inhibition of PKR ([1]; kinase PKR, 1 μM)	%-inhibition of EPHB3 ([2]; kinase EPHB3, compound at 1 μM)	%-inhibition of PKCθ ([3]; kinase PKCθ, 1 μM)	%-inhibition of TNK1 ([4]; kinase TNK1, 1 μM)	%-inhibition, BRK ([5]; kinase BRK, 1 μM compound)	%-inhibition of p38β ([6]; kinase p38β, 1 μM)	%-inhibition of PASK ([7]; kinase PASK, 1 μM)	%-inhibition of RSK4 ([8]; kinase RSK4, 1 μM)	%-inhibition of FES ([9]; kinase FES, compound at 1 μM)	%-inhibition of PIM3 ([10]; kinase PIM3, 1 μM)	%-inhibition, ALK(L1196M) [11, 12]	further results
Cc1ccc(C(=O)Nc2ccc(CN3CCN(C)CC3)c(C(F)(F)F)c2)cc1C#Cc1cnc2cccnn12 [ponatinib]	19%	101%	0.0638%	100%	97%	101%	25%	13%	–	–	–	–
CC(C)(C)c1nc(-c2cccc(NS(=O)(=O)c3c(F)cccc3F)c2F)c(-c2ccnc(N)n2)s1 [dabrafenib]	–	3%	–	100%	98%	5.3%	1.12%	2.2%	2.29%	9%	–	–
COc1cc(Nc2c(C#N)cnc3cc(OCCCN4CCN(C)CC4)c(OC)cc23)c(Cl)cc1Cl [bosutinib]	-13%	–	84%	11%	35%	-0.299%	-0.0941%	43%	–	–	–	–
Cc1nc(Nc2ncc(C(=O)Nc3c(C)cccc3Cl)s2)cc(N2CCN(CCO)CC2)n1 [dasatinib]	3%	–	–	4.31%	–	–	–	–	–	-1.78%	–	–
CO[C@H]1C[C@@H]2CC[C@@H](C)[C@@](O)(O2)C(=O)C(=O)N2CCCC[C@H]2C(=O)O[C@H]([C@H](C)C[C@@H]2CC[C@@H](OC(=O)C(C)(CO)CO)[C@H](OC)C2)CC(=O)[C@H](C)/C=C(\C)[C@@H](O)[C@@H](OC)C(=O)[C@H](C)C[C@H](C)/C=C/C=C/C=C/1C [temsirolimus]	-14%	-13%	-2.62%	-3%	-6%	-2%	-8%	-6%	-4.68%	-1.31%	-2.81%	–
C#Cc1cccc(Nc2ncnc3cc(OCCOC)c(OCCOC)cc23)c1 [erlotinib]	–	–	–	–	–	–	–	–	–	–	–	%-inhibition of FES ([9]; 1 µM): 8.5%; %-inhibition of PKR ([1]; 1 µM): 22%; %-inhibition of EPHB3 ([2]; 1 µM): 5%; %-inhibition of PKCθ ([3]; 1 µM): 4.46%; %-inhibition of TNK1 ([4]; 1 µM): 44%; %-inhibition, BRK ([5]; 1 µM): 47%; %-inhibition of p38β ([6]; 1 µM): -4%; %-inhibition of PIM3 ([10]; 1 µM): 0.333%; %-inhibition of PASK ([7]; 1 µM): -9%; %-inhibition of RSK4 ([8]; 1 µM): 8%; %-inhibition, ALK(L1196M) ([11]; 1 µM): 18%
CCCS(=O)(=O)Nc1ccc(F)c(C(=O)c2c[nH]c3ncc(-c4ccc(Cl)cc4)cc23)c1F [vemurafenib]	-0.765%	2%	-3%	13%	98%	24%	2.35%	-3%	18%	-5%	3%	–
COc1cc2c(Nc3ccc(Br)cc3F)ncnc2cc1OCC1CCN(C)CC1 [vandetanib]	-1.09%	8%	-0.702%	23%	100%	7%	-4.23%	5.43%	-3.7%	-6%	–	–
CCN(CC)CCNC(=O)c1c(C)[nH]c(/C=C2\C(=O)Nc3ccc(F)cc32)c1C [sunitinib]	–	–	–	–	–	–	–	–	–	21%	–	–
O=S(=O)(c1cccc2cnccc12)N1CCCNCC1 [fasudil]	-4.39%	-4%	13%	–	-6%	-2.17%	2.25%	16%	-3.78%	3.45%	-4%	–
C[C@@H](Oc1cc(-c2cnn(C3CCNCC3)c2)cnc1N)c1c(Cl)ccc(F)c1Cl [crizotinib]	6%	5%	-3%	41%	15%	–	1%	-1.58%	–	-4%	–	–
Cc1ccc(Nc2nccc(N(C)c3ccc4c(C)n(C)nc4c3)n2)cc1S(N)(=O)=O [pazopanib]	–	-0.529%	-3.47%	42%	70%	18%	-2.41%	10%	–	-4%	25%	–
COc1cc2nccc(Oc3ccc(NC(=O)C4(C(=O)Nc5ccc(F)cc5)CC4)cc3)c2cc1OC [cabozantinib]	-4.3%	85%	-4.28%	89%	–	33%	-2.16%	-3.65%	39%	0.402%	4.25%	–
